The test concerns the target T1, protein tyrosine phosphatase (PTPase) from Thermus thermophilus HB27 (Thermus thermophilus, UniProt Q72JF6).
T1 construct: gene TT_C0816; recombinant, expressed in E. coli BL21(DE3), purified to homogeneity; low molecular weight PTPase, CX5R(S/T) P-loop with Cys11; monomer in solution
In words: phosphatase activity, absorbance at […] nm. It counts as biochemical.

What is called Ki is the equilibrium dissociation constant of an inhibitor or competing ligand from its target. A low value points to higher affinity.

Structures can show the parent of a compound that is named as a salt.

T1 sequence (Q72JF6 entry or part of it): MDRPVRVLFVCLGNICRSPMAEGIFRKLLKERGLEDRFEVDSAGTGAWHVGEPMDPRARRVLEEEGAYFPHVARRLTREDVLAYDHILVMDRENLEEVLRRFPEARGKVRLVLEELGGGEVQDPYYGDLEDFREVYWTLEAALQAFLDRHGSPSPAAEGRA

With `N=C(N)N` [guanidine hydrochloride], the inhibition constant Ki stood at 270 µM.

The record behind these values is publication PMC4177882, “Inactivation and Unfolding of Protein Tyrosine Phosphatase from Thermus thermophilus HB27 during Urea and Guanidine Hydrochloride Denaturation” (PLoS ONE, 2014).
